Results as given in patent US20240018115A1, “ALLOSTERIC CHROMENONE INHIBITORS OF PHOSPHOINOSITIDE 3-KINASE (PI3K) FOR THE TREATMENT OF DISEASE” (Petra Pharma Corporation, priority 2022, published 2024).

biological target: T1, PI3K-Alpha kinase H1047R mutant (Homo sapiens, UniProt P42336, H1047R); assay: PI3K-Alpha Kinase (PIK3CA) Activity, H1047R Mutant In Vitro Cell Based Assay (MDA-MB-453 cells, AlphaLisa SureFire Ultra); details: 0% FBS, 3 hours treatment, relative IC50
T1 construct: host or cells: MDA-MB-453
T1 sequence (P42336 whole entry H1047R): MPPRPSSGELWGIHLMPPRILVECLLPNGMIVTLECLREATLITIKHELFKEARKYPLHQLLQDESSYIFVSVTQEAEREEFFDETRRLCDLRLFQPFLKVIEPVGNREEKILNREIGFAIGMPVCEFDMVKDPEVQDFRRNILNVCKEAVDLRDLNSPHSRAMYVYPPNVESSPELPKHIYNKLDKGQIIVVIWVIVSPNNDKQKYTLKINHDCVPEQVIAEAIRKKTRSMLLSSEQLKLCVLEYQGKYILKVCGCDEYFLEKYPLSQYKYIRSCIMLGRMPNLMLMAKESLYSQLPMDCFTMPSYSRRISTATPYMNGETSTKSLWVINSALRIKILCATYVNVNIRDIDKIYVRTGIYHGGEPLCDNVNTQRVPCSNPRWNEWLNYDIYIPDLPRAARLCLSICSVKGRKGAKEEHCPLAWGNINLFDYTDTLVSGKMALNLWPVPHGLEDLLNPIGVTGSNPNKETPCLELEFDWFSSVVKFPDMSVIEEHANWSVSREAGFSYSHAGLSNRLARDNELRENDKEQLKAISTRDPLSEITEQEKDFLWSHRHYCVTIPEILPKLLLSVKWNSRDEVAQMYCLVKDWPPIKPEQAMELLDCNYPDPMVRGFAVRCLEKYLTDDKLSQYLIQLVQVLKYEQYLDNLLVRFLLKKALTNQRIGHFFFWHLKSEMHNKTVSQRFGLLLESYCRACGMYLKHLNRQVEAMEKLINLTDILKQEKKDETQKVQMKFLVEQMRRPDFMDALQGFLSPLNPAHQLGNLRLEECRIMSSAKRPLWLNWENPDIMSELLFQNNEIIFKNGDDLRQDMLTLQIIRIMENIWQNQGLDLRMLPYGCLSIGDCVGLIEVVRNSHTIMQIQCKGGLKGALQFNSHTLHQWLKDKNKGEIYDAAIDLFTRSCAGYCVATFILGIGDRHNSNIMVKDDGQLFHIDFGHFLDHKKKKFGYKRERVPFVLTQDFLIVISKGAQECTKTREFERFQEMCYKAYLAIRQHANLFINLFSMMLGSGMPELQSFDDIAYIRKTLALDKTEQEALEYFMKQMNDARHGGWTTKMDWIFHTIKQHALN
T1 sequence (P27986 whole entry partner): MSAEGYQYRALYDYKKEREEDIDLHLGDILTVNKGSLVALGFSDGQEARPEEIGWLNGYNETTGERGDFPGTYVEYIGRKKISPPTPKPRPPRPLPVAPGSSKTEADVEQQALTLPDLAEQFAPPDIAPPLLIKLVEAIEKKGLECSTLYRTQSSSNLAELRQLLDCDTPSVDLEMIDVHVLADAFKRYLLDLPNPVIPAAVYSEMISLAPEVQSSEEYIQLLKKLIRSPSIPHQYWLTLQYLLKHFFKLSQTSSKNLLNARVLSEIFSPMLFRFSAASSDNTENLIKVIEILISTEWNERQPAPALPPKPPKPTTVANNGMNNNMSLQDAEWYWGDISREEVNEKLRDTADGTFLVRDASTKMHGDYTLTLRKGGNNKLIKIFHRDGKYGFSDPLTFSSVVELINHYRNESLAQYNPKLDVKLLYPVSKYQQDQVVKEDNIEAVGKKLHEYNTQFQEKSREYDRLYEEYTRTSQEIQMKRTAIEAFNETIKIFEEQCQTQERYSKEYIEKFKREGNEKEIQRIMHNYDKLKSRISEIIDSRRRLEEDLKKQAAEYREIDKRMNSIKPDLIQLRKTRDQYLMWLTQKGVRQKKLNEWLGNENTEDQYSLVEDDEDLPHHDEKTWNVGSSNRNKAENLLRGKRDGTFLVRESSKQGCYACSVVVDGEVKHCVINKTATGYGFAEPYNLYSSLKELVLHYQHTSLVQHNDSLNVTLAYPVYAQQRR
Description: PI3K-Alpha Kinase (PIK3CA) Activity, H1047R Mutant In Vitro Cell Based Assay and Determining IC50 Values for Inhibitors
The MDA-MB-453 (ATCC-HTB-131) cell line was obtained from the American Type Culture Collection (Manassas, VA). Cells were maintained in Dulbecco's Modified Eagle Media (DMEM, Gibco 11965-092) supplemented with 10% Fetal Bovine Serum, heat inactivated (FBS HI, Gibco 10082-147), 1× non-essential amino acids (NEAA, Gibco 11140-050), and 1 mM sodium pyruvate (Gibco 11360-070). Cultures were maintained in a humidified incubator at 37° C. under 5% CO2/95% air.
For compound testing in 0% FBS, MDA-MB-453 cells were seeded at a density of 1.5×10^4 cells per well in white 384-well plates in 20 μl of Minimum Essential Media (MEM) assay media with 1×NEAA, 1 mM sodium pyruvate, and 1 μg/mL human insulin (Sigma I9278). Compounds dissolved in 10 mM stock solutions in DMSO were serially diluted 1:3 in DMSO to generate a 10-point dilution series and plated using an acoustic liquid handler system (Echo 550 Series Liquid Handler, Labcyte). A 5× intermediate compound dilution plate in MEM with 1×NEAA and 1 mM sodium pyruvate (150 μM starting compound concentration in 1.5% DMSO) was then prepared. Five μl of the intermediate serially diluted compounds were added to the cell plate to final concentrations ranging from […] in 0.3% DMSO. 0.3% DMSO alone was used to establish the maximum (MAX) signal and GDC-0032 at a final concentration of 1 μM was used as a reference compound for the minimum (MIN) signal. After 3 hours treatment, the medium was removed, and the cells lysed in 10 μL of 1× SureFire Lysis buffer with shaking for 10 minutes at room temperature. The Acceptor Mix (Reaction Buffer 1+Reaction Buffer 2+Activation Buffer+SureFire Ultra Acceptor Beads) was prepared by diluting Activation buffer 25-fold in combined Reaction Buffer 1 and Reaction Buffer 2. The Acceptor beads were diluted 50-fold in the combined Reaction Buffers. Five μL of Acceptor Mix was added to each well, the plate was sealed and covered with foil and incubated for 1 hour at room temperature. The Donor Mix (dilution buffer+SureFire Ultra Donor Beads) was prepared by diluting Donor Beads 50-fold in dilution buffer. Five μL of the Donor Mix was added to each well and the plate sealed and covered with foil and incubated for 1 hour at room temperature in the dark. The plates were read on a Neo2 plate reader instrument from Biotek using standard AlphaLisa settings. Compounds were tested in duplicate and the average % inhibition at each compound concentration was used to generate a single dose response curve. The data were processed using the Genedata-Screener tool. Relative IC50 values were determined using luminescence units by calculating percent inhibition with respect to the in-plate “MIN” (GDC-0032 reference control) and “MAX” (DMSO) controls. The data was analyzed using a 4-parameter nonlinear logistic equation (four-parameter logistic concentration-response curve):
Y=bottom+[(top−bottom)/1+(X/IC50)slope]
where Y=% inhibition, X=concentration of inhibitor, bottom=minimum value of y attained by curve-fit, top=maximum value of y attained by curve-fit and slope=steepness of curve at the IC50.
% Inhibition=[(signal at X−median Min)/(median Max−median Min)]×100
IC50: concentration of compound that reduces a given response (ligand binding, enzyme response) by 50%. Relative IC50: concentration giving half the compound's maximum response.

Compound	IC50 [nM]
Cc1cc([C@@H](C)Nc2ccc(Cl)nc2S(C)(=O)=O)c2oc(-c3ccccc3)c(C)c(=O)c2c1 [Example 80B, 8-[(1R)-1-[(6-Chloro-2-methylsulfonyl-3-pyridyl)amino]ethyl]-3,6-dimethyl-2-phenyl-chromen-4-one]	< 500
Cc1cc([C@@H](C)Nc2cccnc2C)c2oc(-c3cccnc3)c(C)c(=O)c2c1 [Example 9B, 3,6-Dimethyl-8-[(1R)-1-[(2-methyl-3-pyridyl)amino]ethyl]-2-(3-pyridyl)chromen-4-one]	< 500
Cc1cc([C@@H](C)Nc2ccccc2C(=O)C=S(C)(C)=O)c2oc(-c3ccccc3)c(C)c(=O)c2c1 [Example 54C, 8-[(1R)-1-[2-[2-[Dimethyl(oxo)-lambda6-sulfanylidene]acetyl]anilino]ethyl]-3,6-dimethyl-2-phenyl-chromen-4-one]	< 500
Cc1cc([C@@H](C)Nc2ccccc2-c2cncs2)c2oc(-c3cccnc3)c(C)c(=O)c2c1 [Example 72A, 3,6-Dimethyl-2-(3-pyridyl)-8-[(1R)-1-(2-thiazol-5-ylanilino)-ethyl]chromen-4-one]	< 500
Cc1cc(C(C)Nc2cccc3c2C(=O)C(=O)N3)c2oc(-c3ccccc3)c(C)c(=O)c2c1 (single isomer, unassigned) [Example 27A]	< 1000
Cc1cc([C@@H](C)Nc2ccc(Cl)cc2)c2oc(-c3ccccc3)c(C)c(=O)c2c1 [Example 12B, 8-[(1R)-1-(4-Chloroanilino)ethyl]-3,6-dimethyl-2-phenyl-chromen-4-one]	< 1000
Cc1cc([C@@H](C)Nc2ccccc2-c2cncn2C)c2oc(-c3ccccc3)c(C)c(=O)c2c1 [Example 68A, 3,6-Dimethyl-8-[(1R)-1-[2-(3-methylimidazol-4-yl)anilino]ethyl]-2-phenyl-chromen-4-one]	< 500
Cc1cc(C(C)Nc2ccccc2-n2cnnn2)c2oc(-c3ccccc3)c(C)c(=O)c2c1 (single isomer, unassigned) [Example 24A, 3,6-Dimethyl-2-phenyl-8-[1-[2-(tetrazol-1-yl)anilino]ethyl]chromen-4-one]	< 500
Cc1cc(C(C)Nc2ccccc2S(N)(=O)=O)c2oc(-c3ccccc3)c(C)c(=O)c2c1 (centres unmarked) [Example 32A, 2-[1-(3,6-Dimethyl-4-oxo-2-phenyl-chromen-8-yl)ethylamino]benzenesulfonamide]	< 500
Cc1cc([C@@H](C)Nc2cccnc2-c2n[nH]c(=O)[nH]2)c2oc(-c3ccccc3)c(C)c(=O)c2c1 [Example 63A, 3-[3-[[(1R)-1-(3,6-Dimethyl-4-oxo-2-phenyl-chromen-8-yl)ethyl]amino]-2-pyridyl]-1,4-dihydro-1,2,4-triazol-5-one]	< 500
Cc1cc([C@@H](C)Nc2ccc(Cl)nc2C)c2oc(-c3ccc4cn[nH]c4c3)c(C)c(=O)c2c1 [Example 78B, 8-[(1R)-1-[(6-Chloro-2-methyl-3-pyridyl)amino]ethyl]-2-(1H-indazol-6-yl)-3,6-dimethyl-chromen-4-one]	< 500
Cc1cc([C@@H](C)Nc2ccc(Cl)nc2)c2oc(-c3ccccc3)c(C)c(=O)c2c1 [Example 14B, 8-[(1R)-1-[(6-Chloro-3-pyridyl)amino]ethyl]-3,6-dimethyl-2-phenyl-chromen-4-one]	< 500
Cc1cc([C@@H](C)Nc2ccc(Cl)nc2C)c2oc(-c3cccnc3)c(C)c(=O)c2c1 [Example 10B, 8-[(1R)-1-[(6-Chloro-2-methyl-3-pyridyl)amino]ethyl]-3,6-dimethyl-2-(3-pyridyl)chromen-4-one]	< 500
Cc1cc([C@@H](C)Nc2ccccc2-c2ccns2)c2oc(-c3cccnc3)c(C)c(=O)c2c1 [Example 74A, 8-[(1R)-1-(2-Isothiazol-5-ylanilino)ethyl]-3,6-dimethyl-2-(3-pyridyl)-chromen-4-one]	< 500
Cc1cc([C@@H](C)Nc2cccnc2-c2ncon2)c2oc(-c3ccccc3)c(C)c(=O)c2c1 [Example 53C, 3,6-Dimethyl-8-[(1R)-1-[[2-(1,2,4-oxadiazol-3-yl)-3-pyridyl]amino]ethyl]-2-phenyl-chromen-4-one]	< 500
Cc1cc([C@@H](C)Nc2ccccc2-c2ncco2)c2oc(-c3ccccc3)c(C)c(=O)c2c1 [Example 65A, 3,6-Dimethyl-8-[(1R)-1-(2-oxazol-2-ylanilino)ethyl]-2-phenyl-chromen-4-one]	< 1000
Cc1cc([C@@H](C)Nc2ccccc2-c2nncn2C)c2oc(-c3ccccc3)c(C)c(=O)c2c1 [Example 66A, 3,6-Dimethyl-8-[(1R)-1-[2-(4-methyl-1,2,4-triazol-3-yl)anilino]ethyl]-2-phenyl-chromen-4-one]	< 500

Other lines, results leading:

IC50 [nM]	Compound
< 500	CNC(=O)c1ccccc1N[C@H](C)c1cc(C)cc2c(=O)c(C)c(-c3cccc(F)c3)oc12 [Example 86A, 2-[[(1R)-1-[2-(3-Fluorophenyl)-3,6-dimethyl-4-oxo-chromen-8-yl]ethyl]amino]-N-methyl-benzamide]
< 500	Cc1cc([C@@H](C)Nc2cccnc2C(=O)NCC(C)(C)O)c2oc(-c3ccccc3)c(C)c(=O)c2c1 [Example 177A, 3-[[(1R)-1-(3,6-Dimethyl-4-oxo-2-phenyl-chromen-8-yl)ethyl]amino]-N-(2-hydroxy-2-methyl-propyl)pyridine-2-carboxamide]
< 500	Cc1cc([C@@H](C)Nc2ccc(Cl)nc2S(N)(=O)=O)c2oc(-c3ccccc3)c(-c3cnoc3)c(=O)c2c1 [Example 132C]
< 500	Cc1cc([C@@H](C)Nc2ccc(Cl)nc2S(N)(=O)=O)c2oc(-c3ccc(=O)n(C(C)C)c3)c(C)c(=O)c2c1 [Example 133C]
< 500	CNC(=O)c1ccccc1N[C@H](C)c1cc(C)cc2c(=O)c(C)c(-c3ccc4nn(C)cc4c3)oc12 [Example 84A]
< 500	Cc1cc([C@@H](C)Nc2ccc(Cl)nc2C(=O)NS(N)(=O)=O)c2oc(-c3ccccc3)c(C)c(=O)c2c1 [Example 130C, 6-Chloro-3-[[(1R)-1-(3,6-dimethyl-4-oxo-2-phenyl-chromen-8-yl)ethyl]amino]-N-sulfamoyl-pyridine-2-carboxamide]
< 500	Cc1cc(C(C)Nc2ccc(Cl)nc2-c2ccccc2F)c2oc(-c3cccnc3)c(C)c(=O)c2c1 (single isomer, unassigned) [Example 219C, 8-[1-[[6-Chloro-2-(2-fluorophenyl)-3-pyridyl]amino]ethyl]-3,6-dimethyl-2-(3-pyridyl)chromen-4-one]
< 500	Cc1cc([C@@H](C)Nc2ccccc2CO)c2oc(-c3cccnc3)c(C)c(=O)c2c1 [Example 224C, 8-[(1R)-1-[2-(Hydroxymethyl)anilino]ethyl]-3,6-dimethyl-2-(3-pyridyl)chromen-4-one]
< 500	Cc1cc(C(C)Nc2ccc(Cl)nc2-c2ccc(=O)[nH]c2)c2oc(-c3cccnc3)c(C)c(=O)c2c1 (single isomer, unassigned) [Example 222C, 5-[6-Chloro-3-[1-[3,6-dimethyl-4-oxo-2-(3-pyridyl)chromen-8-yl]ethylamino]-2-pyridyl]-1H-pyridin-2-one]
< 500	Cc1cc([C@@H](C)Nc2cccnc2N(C)C)c2oc(-c3cccnc3)c(C)c(=O)c2c1 [Example 168C, 8-[(1R)-1-[[2-(Dimethylamino)-3-pyridyl]amino]ethyl]-3,6-dimethyl-2-(3-pyridyl)chromen-4-one]
< 500	Cc1cc([C@@H](C)Nc2cccnc2C(=O)N[C@@H]2CCOC2)c2oc(-c3ccccc3)c(C)c(=O)c2c1 [Example 178A, 3-[[(1R)-1-(3,6-Dimethyl-4-oxo-2-phenyl-chromen-8-yl)ethyl]amino]-N-[(3R)-tetrahydrofuran-3-yl]pyridine-2-carboxamide]
< 500	CNC(=O)c1ccccc1N[C@H](C)c1cc(C)cc2c(=O)c(C)c(-c3cccnc3)oc12 [Example 83A, 2-[[(1R)-1-[3,6-Dimethyl-4-oxo-2-(3-pyridyl)chromen-8-yl]ethyl]amino]-N-methyl-benzamide]
